Laboratory results published in PMC12444472, “BCI inhibits MKP3 by targeting the kinase-binding domain and disrupting ERK2 interaction” (The Journal of Biological Chemistry, 2025).
“And” between values parts separate entries of the source, which are not always exact repeats. Equal values may be shown once.

Key:
Assay in all cases: MST affinity measurement
Conditions in all cases: one-site binding model, mean ± SD of three experiments
MKP3^FL = target: T1, MKP3^FL (Homo sapiens, UniProt Q16828)
T1 construct: MKP3(1–381) (MKP3^FL); made in house; host or cells: Escherichia coli BL21(DE3)
T1 sequence (Q16828 1-381): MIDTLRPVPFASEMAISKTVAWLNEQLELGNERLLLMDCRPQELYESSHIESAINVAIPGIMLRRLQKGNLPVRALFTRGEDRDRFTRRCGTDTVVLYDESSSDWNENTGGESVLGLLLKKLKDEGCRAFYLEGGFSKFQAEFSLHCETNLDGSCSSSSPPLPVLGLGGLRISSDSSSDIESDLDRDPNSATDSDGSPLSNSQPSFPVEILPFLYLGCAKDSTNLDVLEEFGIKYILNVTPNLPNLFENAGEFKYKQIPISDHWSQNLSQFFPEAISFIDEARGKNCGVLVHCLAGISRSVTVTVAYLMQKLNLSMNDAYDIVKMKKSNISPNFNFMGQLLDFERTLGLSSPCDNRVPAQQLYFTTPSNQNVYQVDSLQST
Description: (§1) MST measurements were performed using fluorescently labeled proteins and the inhibitor BCI (CAS: 1245792-51-1; TargetMol) on a Monolith instrument (NanoTemper Technologies). The RED–Tris–NTA second-generation dye was dissolved in MST buffer (20 mM Hepes, pH 7.4, 200 mM NaCl, and 0.05% Tween-20) to prepare a 5 μM stock solution. Fluorescent labeling of MKP proteins followed the standard protocol of the MO-L018 RED–Tris–NTA protein labeling kit, leveraging the His-tag–dye interaction.
(§2) The BCI compound was prepared as a 600 to 750 μM stock solution in MST buffer with 10% DMSO to enhance solubility, followed by a 16-point serial dilution. The diluted BCI solutions were thoroughly mixed with labeled MKP proteins (50 nM) at a 1:1 volume ratio, yielding a final volume of 10 μl. The reaction mixtures were incubated in the dark for 10 min at room temperature before being loaded into standard glass capillaries. Measurements were carried out on the Monolith instrument (100% LED, 40% IR laser power) with a 20 s laser on time. The normalized fluorescence values from triplicate measurements were averaged at each concentration and fitted to a 1:1 binding model using the KD model in MO.Affinity software (v3.0.5, NanoTemper Technologies) to determine the binding affinities between MKP proteins and the BCI inhibitor. The final reported Kd value represents the mean ± SD of Kd values obtained from three independent experiments, each fitted separately.

MKP5^KBD = target: T2, MKP5^KBD (Homo sapiens, UniProt Q9Y6W6)
T2 construct: MKP5(139–287) (MKP5^KBD); made in house; host or cells: Escherichia coli BL21(DE3)
T2 sequence (Q9Y6W6 139-287): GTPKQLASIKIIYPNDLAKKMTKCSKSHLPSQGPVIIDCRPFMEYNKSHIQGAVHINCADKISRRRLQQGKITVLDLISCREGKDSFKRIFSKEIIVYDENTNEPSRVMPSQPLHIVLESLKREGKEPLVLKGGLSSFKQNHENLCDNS
Description: as §1, §2

MKP1^KBD = target: T3, MKP1^KBD (Homo sapiens, UniProt P28562)
T3 construct: MKP1(1–141) (MKP1^KBD); made in house; host or cells: Escherichia coli BL21(DE3)
T3 sequence (P28562 1-141): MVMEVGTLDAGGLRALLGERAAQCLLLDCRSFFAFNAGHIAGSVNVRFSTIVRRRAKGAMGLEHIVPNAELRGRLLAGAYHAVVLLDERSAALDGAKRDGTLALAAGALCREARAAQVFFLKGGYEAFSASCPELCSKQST
Description: as §1, §2

MKP2^KBD = target: T4, MKP2^KBD (Homo sapiens, UniProt Q13115)
T4 construct: MKP2(5–159) (MKP2^KBD); made in house; host or cells: Escherichia coli BL21(DE3)
T4 sequence (Q13115 5-159): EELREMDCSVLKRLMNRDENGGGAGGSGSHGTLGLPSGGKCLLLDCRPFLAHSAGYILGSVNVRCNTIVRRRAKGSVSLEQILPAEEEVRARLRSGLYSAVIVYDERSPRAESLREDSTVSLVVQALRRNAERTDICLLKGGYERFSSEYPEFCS
Description: as §1, §2

MKP3^KBD = target: T5, MKP3^KBD (Homo sapiens, UniProt Q16828)
T5 construct: MKP3(1–154) (MKP3^KBD); made in house; host or cells: Escherichia coli BL21(DE3)
T5 sequence (Q16828 1-154): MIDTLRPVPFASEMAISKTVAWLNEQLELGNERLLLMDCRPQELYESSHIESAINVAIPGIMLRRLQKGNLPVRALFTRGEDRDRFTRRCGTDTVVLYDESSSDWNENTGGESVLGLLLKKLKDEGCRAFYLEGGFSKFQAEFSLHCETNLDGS
Description: as §1, §2

MKPX^KBD = target: T6, MKPX^KBD (Homo sapiens, UniProt Q16829)
T6 construct: MKPX(1–140) (MKPX^KBD); made in house; host or cells: Escherichia coli BL21(DE3)
T6 sequence (Q16829 1-140 isoform Q16829-2): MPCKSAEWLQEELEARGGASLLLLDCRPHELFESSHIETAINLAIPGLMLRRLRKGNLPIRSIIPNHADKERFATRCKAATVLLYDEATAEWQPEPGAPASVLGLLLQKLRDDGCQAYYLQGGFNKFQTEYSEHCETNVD
Description: as §1, §2

SMILES: O=C1/C(=C/c2ccccc2)C(NC2CCCCC2)c2ccccc21 (stereo not drawn) [BCI, (E)-2-benzylidene-3-(cyclohexylamino)-2,3-dihydro-1H-inden-1-one]
- Kd (MKP3^FL): 9.2 ± 1.8 µM
- Kd (MKP5^KBD): ~8.5 µM and 8.5 µM
- Kd (MKP1^KBD): ~73.1 µM and 73.1 µM
- Kd (MKP2^KBD): ~49 µM and 49 µM
- Kd (MKP3^KBD): 15 µM and ~15 µM
- Kd (MKPX^KBD): ~14.1 µM and 14.1 µM
